Measurements reported in the NIST ThermoML archive (doi:10.1016/j.jct.2018.04.010).
Numbers after ± are expanded uncertainties.

Key:
[1] = 101 kPa, Liquid, Vibrating tube method
[2] = xn = mol fraction of the nth substance listed; settings: 101 kPa, Liquid, Vibrating tube method, x2 = 0.333

SMILES | mass density ([1]; 293.15 K) [kg/m3] | mass density ([1]; 303.15 K) [kg/m3] | mass density ([1]; 313.15 K) [kg/m3] | mass density ([1]; 323.15 K) [kg/m3] | mass density ([2]; 293.15 K) [kg/m3] | mass density ([2]; 303.15 K) [kg/m3] | mass density ([2]; 313.15 K) [kg/m3] | mass density ([2]; 323.15 K) [kg/m3]
CO [methanol] | 792.6 ± 2 | 783 ± 2 | 773.5 ± 2 | 764 ± 2 |  |  |  | 
NC(N)=O [urea] + C[N+](C)(C)CCO.[Cl-] |  |  |  |  | 1199.7 ± 2 | 1194.2 ± 2 | 1188.6 ± 2 | 1183.2 ± 2
